Laboratory results from the supplement of paper PMC10307832.

Legend:
Assay in all cases: relative viability (nuclei count vs DMSO), 5 days (fraction); higher = more cells survive
Bortezomib + Phenformin = compound: CC(C)C[C@H](NC(=O)[C@H](Cc1ccccc1)NC(=O)c1cnccn1)B(O)O [Bortezomib] + N=C(N)NC(=N)NCCc1ccccc1 [Phenformin] (partner 250 µM)
Method in brief: (§1)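 Dosing by pin tool came one day after lung cancer cell lines were seeded in 1536-well plates, using either one drug or a fixed anchor-drug dose plus five library-drug doses (not always all listed) in √10 steps. After 5 days, nuclei were counted on 4× images. Relative viability is treated-well nuclei count divided by vehicle-well nuclei count, and values are medians of duplicate plates.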

Bortezomib + AZD7762 = compound: CC(C)C[C@H](NC(=O)[C@H](Cc1ccccc1)NC(=O)c1cnccn1)B(O)O [Bortezomib] + NC(=O)Nc1cc(-c2cccc(F)c2)sc1C(=O)N[C@H]1CCCNC1 [AZD7762] (partner 0.2 µM)
Method in brief: as §1

[1] = compound: CC1=CC(=NN1)NC2=CC(=NC(=N2)/C=C/C3=CC=CC=C3)N4CCN(CC4)C + CS(=O)(=O)N1CCN(Cc2cc3nc(-c4cccc5[nH]ncc45)nc(N4CCOCC4)c3s2)CC1 [Pictilisib] (partner 1 µM)
Method in brief: as §1

Obatoclax + Lapatinib = compound: COC1=CC(c2cc3ccccc3[nH]2)=N/C1=C\c1[nH]c(C)cc1C [Obatoclax] + CS(=O)(=O)CCNCc1ccc(-c2ccc3ncnc(Nc4ccc(OCc5cccc(F)c5)c(Cl)c4)c3c2)o1 [Lapatinib] (partner 2 µM)
Method in brief: as §1

Row | Cell Line | relative viability (Bortezomib + Phenformin; first compound 0.0002 µM) | relative viability (Bortezomib + Phenformin; first compound 0.000632 µM) | relative viability (Bortezomib + Phenformin; first compound 0.002 µM) | relative viability (Bortezomib + Phenformin; first compound 0.006325 µM) | relative viability (Bortezomib + Phenformin; first compound 0.02 µM) | relative viability (Bortezomib + AZD7762; first compound 0.0002 µM) | relative viability (Bortezomib + AZD7762; first compound 0.000632 µM) | relative viability (Bortezomib + AZD7762; first compound 0.002 µM) | relative viability (Bortezomib + AZD7762; first compound 0.006325 µM) | relative viability (Bortezomib + AZD7762; first compound 0.02 µM) | relative viability ([1]; first compound 0.08 µM) | relative viability ([1]; first compound 0.253 µM) | relative viability ([1]; first compound 0.8 µM) | relative viability ([1]; first compound 2.53 µM) | relative viability ([1]; first compound 8 µM) | relative viability (Obatoclax + Lapatinib; first compound 0.01 µM) | relative viability (Obatoclax + Lapatinib; first compound 0.03162 µM) | relative viability (Obatoclax + Lapatinib; first compound 0.1 µM) | relative viability (Obatoclax + Lapatinib; first compound 0.3162 µM) | relative viability (Obatoclax + Lapatinib; first compound 1 µM)
1 | 201T | 0.456 | 0.402 | 0.483 | 0.44 | 0.24 | 0.602 | 0.684 | 0.59 | 0.661 | 0.38 | 0.668 | 0.683 | 0.67 | 0.643 | 0.607 | 1.08 | 0.789 | 0.94 | 1.01 | 0.97
2 | A549 | 0.154 | 0.231 | 0.18 | 0.0502 | 0.0365 |  |  |  |  |  | 0.464 | 0.592 | 0.332 | 0.0385 | 0.0281 | 0.933 | 1.1 | 0.997 | 0.966 | 0.125
3 | A-427 | 0.253 | 0.246 | 0.339 | 0.212 | 0.11 | 0.719 | 0.872 | 0.763 | 0.197 | 0.146 | 0.836 | 0.247 | 0.741 | 0.401 | 0.11 | 1.08 | 0.884 | 1.03 | 1.09 | 0.992
4 | ABC-1 | 0.231 | 0.227 | 0.202 | 0.186 | 0.175 |  | 0.712 | 0.184 | 0.223 | 0.191 | 0.764 | 0.76 | 0.792 | 0.284 | 0.173 | 0.87 | 1.15 | 1.25 | 1.04 | 1.33
5 | BEN | 0.258 | 0.266 | 0.264 | 0.259 | 0.174 | 0.667 | 0.788 | 0.73 | 0.578 | 0.389 | 0.622 | 0.578 | 0.598 | 0.411 | 0.193 | 0.726 | 0.696 | 0.305 | 0.792 | 0.698
6 | CAL-12T | 0.552 | 0.585 | 0.586 | 0.25 | 0.114 | 0.608 | 0.596 | 0.602 | 0.576 | 0.271 | 0.335 | 0.426 | 0.48 | 0.187 | 0.147 | 0.609 | 0.733 | 0.755 | 0.392 | 0.287
7 | COR-L23 | 0.466 | 0.429 | 0.4 | 0.0535 | 0.0571 |  |  |  |  |  | 0.73 | 0.929 | 0.765 | 0.177 | 0.0607 | 0.954 | 0.957 | 0.714 | 0.254 | 0.199
8 | COR-L 105 | 0.542 | 0.4 | 0.428 | 0.328 | 0.256 |  |  |  |  |  | 0.461 | 0.429 | 0.353 | 0.205 | 0.223 | 0.368 | 0.318 | 0.369 | 0.294 | 0.252
9 | Calu-6 |  |  |  |  |  |  |  |  |  |  | 0.876 | 0.807 | 0.648 | 0.131 | 0.103 | 1.03 | 1.09 | 1.04 | 0.842 | 0.244
